Experimental data reported in patent US20220041627A1, “PRODRUGS OF ANTI-CANCER AND ANTI-AUTOIMMUNE DISEASES THERAPEUTIC AGENTS, AND METHODS OF MAKING AND USE THEREOF” (UNIVERSITY OF MARYLAND, BALTIMORE, priority 2018, published 2022).
Read-outs that look alike come from different tables or passages of the source.

Key:
MDA-MB-435 = test: NCI-60 growth inhibition, MDA-MB-435; type: cell-based, human
Excerpt: (§1) The anticancer effects of compounds 1a-1b against 60 human cancer cell lines (the Developmental Therapeutics Program of NCI) were studied. The cell lines were derived from different cancer types including leukemia, non-small-cell lung cancer, colon cancer, CNS cancer, melanoma, ovarian cancer, renal cancer, prostate cancer, and breast cancer (Table 1; the assay protocol can be found at: https://dtp.cancer.gov/default.htm). Compound 1a caused over 50% growth inhibition for most tested cell lines. […] Without wishing to be bound by any particular theory, it is believed that the differences in the anticancer effects between compounds 1a and 1b may be due to the more favorable cell membrane permeability of the boronic ester 1a.

OVCAR-5 = test: NCI-60 growth inhibition, OVCAR-5; type: cell-based, human
Excerpt: as §1

SW-620 = test: NCI-60 growth inhibition, SW-620; type: cell-based, human
Excerpt: as §1

LOX IMVI = test: NCI-60 growth inhibition, LOX IMVI; type: cell-based, human; settings: Melanoma LOX IMVI, 48 h
Excerpt: as §1

NCI-H23 = test: NCI-60 growth inhibition, NCI-H23; type: cell-based, human
Excerpt: as §1

786-0 = test: NCI-60 growth inhibition, 786-0; type: cell-based, human
Excerpt: as §1

RXF 393 = test: NCI-60 growth inhibition, RXF 393; type: cell-based, human
Excerpt: as §1

HT29 = test: NCI-60 growth inhibition, HT29; type: cell-based, human
Excerpt: as §1

UACC-62 = test: NCI-60 growth inhibition, UACC-62; type: cell-based, human
Excerpt: as §1

IGROV1 = test: NCI-60 growth inhibition, IGROV1; type: cell-based, human
Excerpt: as §1

OVCAR-3 = test: NCI-60 growth inhibition, OVCAR-3; type: cell-based, human
Excerpt: as §1

PC-3 = test: NCI-60 growth inhibition, PC-3; type: cell-based, human
Excerpt: as §1

M14 = test: NCI-60 growth inhibition, M14; type: cell-based, human
Excerpt: as §1

UO-31 = test: NCI-60 growth inhibition, UO-31; type: cell-based, human
Excerpt: as §1

OVCAR-4 = test: NCI-60 growth inhibition, OVCAR-4; type: cell-based, human
Excerpt: as §1

ACHN = test: NCI-60 growth inhibition, ACHN; type: cell-based, human; settings: Renal Cancer ACHN, 48 h
Excerpt: as §1

UACC-257 = test: NCI-60 growth inhibition, UACC-257; type: cell-based, human
Excerpt: as §1

[1] = tested on: 60 human cancer cell lines; test: NCI-60 cellular antitumor activity profiling, panel summary; type: cell-based; settings: 48 h; for inhibition at 50 µM: Homo sapiens
Excerpt: as §1

SF-539 = test: NCI-60 growth inhibition, SF-539; type: cell-based, human
Excerpt: as §1

caspase 3 = test: Western blot of caspase 3 in MCF7 cells; type: cell-based, human; settings: 48 h; for expression level of caspase 3: compared to vehicle-treated cells; for level of cleavage of caspase 3: compared to vehicle-treated controls
Description: FIGS. 4A and 4B illustrate the effect of compounds 1a-1b in apoptosis. FIG. 4A: immunofluorescence of DNA cleavage protein γH2Ax was enhanced by using 5-FU and prodrugs 1a-1b. FIG. 4B: immunoblot analysis of MCF-7 cells treated with 5-FU, prodrugs 1a-1b for apoptosis markers PARP1 and Caspase 3. The cells were treated for 48 h with the indicated concentrations of compounds.
Western Blot Analysis. Treated cells were washed once with PBS and lysed with RIPA lysis buffer (Santa Cruz Biotechnology, SCBT, #24948) supplemented with sodium orthovanadate, PMSF, protease and phosphatase inhibitor cocktails (Sigma Aldrich). Cell lysates were centrifuge for 15 min at 14,000×g and the supernatant was used for immunoblotting. Protein concentration was normalized for the samples and resolved on a 10-13% SDS-PAGE gel. Following transfer to nitrocellulose membrane, specific mouse primary antibodies from SCBT (PARP1 #sc-8007, caspase 3 #sc-7272) and Cell Signaling (cleaved PARP1 #9541, cleaved caspase-3 #9664) were added and incubated overnight. Secondary antibodies corresponding to the host of the primary antibodies was further incubated with the membrane and washed three times to remove excess antibodies. Odyssey Fc Imaging System (LI-COR, Lincoln, Nebr.) was used to quantify the chemiluminescent of the proteins.
To understand the mechanism of action of prodrugs 1a-1b, the impact of the treatment of compounds 1a-1b on the γH2AX formation in MCF7 cells were determined using immunofluorescence assay (FIG. 4A). […] The effects of prodrugs 1a-1b on the PARP1 and caspase 3 cleavage in MCF7 cells were also determined using Western blots assays (FIG. 4B). […] Treatment of 5-FU and compounds 1a-1b increased the levels of cleavage of PARP1 and caspase 3 in MCF7 cells, as compared with that in the vehicle-treated controls. Therefore, prodrugs 1a-1b, similar to 5-FU, can induce MCF7 cell apoptosis, which might contribute to their pharmacological actions.

K-562 = test: NCI-60 growth inhibition, K-562; type: cell-based, human
Excerpt: as §1

NCI-H322M = test: NCI-60 growth inhibition, NCI-H322M; type: cell-based, human; settings: Non-Small Cell lung Cancer NCI-H322M, 48 h
Excerpt: as §1

MDA-MB-231/ATCC = test: NCI-60 growth inhibition, MDA-MB-231/ATCC; type: cell-based, human; settings: Breast Cancer MDA-MB-231/ATCC, 48 h
Excerpt: as §1

HL-60(TB) = test: NCI-60 growth inhibition, HL-60(TB); type: cell-based, human; settings: Leukemia HL-60(TB), 48 h
Excerpt: as §1

For `CC1(C)OB(c2ccc(Cn3cc(F)c(=O)[nH]c3=O)cc2)OC1(C)C` [Compound 1a, 5-Fluoro-1-(4-(4,4,5,5-tetramethyl-1,3,2-dioxaborolan-2-yl)benzyl)pyrimidine-2,4(1H,3H)-dione], the inhibition at 50 µM (MDA-MB-435; Homo sapiens, Melanoma MDA-MB-435, 48 h) was 96%, the inhibition at 50 µM (OVCAR-5; Homo sapiens, Ovarian Cancer OVCAR-5, 48 h) was 30% and the inhibition at 50 µM (SW-620; Homo sapiens, Colon Cancer SW-620, 48 h) was 66%. The inhibition at 50 µM (LOX IMVI; Homo sapiens) was 47%, the inhibition at 50 µM (NCI-H23; Homo sapiens, Non-Small Cell lung Cancer NCI-H23, 48 h) was 32% and the inhibition at 50 µM (786-0; Homo sapiens, Renal Cancer 786-0, 48 h) was 19%. The inhibition at 50 µM (RXF 393; Homo sapiens, Renal Cancer RXF 393, 48 h) was 40%, the inhibition at 50 µM (HT29; Homo sapiens, HT-29, Colon Cancer HT29, 48 h) was 76% and the inhibition at 50 µM (UACC-62; Homo sapiens, Melanoma UACC-62, 48 h) was 71%. It also gave an inhibition at 50 µM (IGROV1; Homo sapiens, IGROV-1, Ovarian Cancer IGROV1, 48 h) of 56%, an inhibition at 50 µM (OVCAR-3; Homo sapiens, Ovarian Cancer OVCAR-3, 48 h) of 95% and an inhibition at 50 µM (PC-3; Homo sapiens, Prostate Cancer PC-3, 48 h) of 45%. The inhibition at 50 µM (M14; Homo sapiens, Melanoma M14, 48 h) was 55%, the inhibition at 50 µM (UO-31; Homo sapiens, Renal Cancer UO-31, 48 h) was 27% and the inhibition at 50 µM (OVCAR-4; Homo sapiens, Ovarian Cancer OVCAR-4, 48 h) was 30%. For the same compound, the inhibition at 50 µM (ACHN; Homo sapiens) was 8%, the inhibition at 50 µM (UACC-257; Homo sapiens, Melanoma UACC-257, 48 h) was 33% and the inhibition at 50 µM ([1]; lung cancer NCI-H522, melanoma MDA-MB-435, ovarian cancer OVCAR-3, breast cancer MCF7 and MDA-MB-468 cells, read-out: most significant inhibition) was 81 to 96%. For the same compound, the inhibition at 50 µM ([1]; most cell lines of the NCI-60 panel, read-out: growth inhibition for most tested cell lines) was greater than 50%, the inhibition at 50 µM (SF-539; Homo sapiens, CNS Cancer SF-539, 48 h) was 39% and the “expression level of caspase 3” value (caspase 3) was “significantly reduced”. For the same compound, the “level of cleavage of caspase 3” value (caspase 3) was “increased”, the inhibition at 50 µM (K-562; Homo sapiens, K562, Leukemia K-562, 48 h) was 70% and the inhibition at 50 µM (NCI-H322M; Homo sapiens) was 14%. For the same compound, the inhibition at 50 µM (MDA-MB-231/ATCC; Homo sapiens) was 14% and the inhibition at 50 µM (HL-60(TB); Homo sapiens) was 68%.

In the case of `O=c1[nH]c(=O)n(Cc2ccc(B(O)O)cc2)cc1F` [Compound 1b, (4-((5-Fluoro-2,4-dioxo-3,4-dihydropyrimidin-I(2H)-yl)methyl)phenyl)boronic acid], the “Growth Inhibition (%)” value (MDA-MB-435; Melanoma MDA-MB-435, 50 μM, 48 h) is reported as 65%, the “Growth Inhibition (%)” value (OVCAR-5; Ovarian Cancer OVCAR-5, 50 μM, 48 h) is reported as 19% and the “Growth Inhibition (%)” value (SW-620; Colon Cancer SW-620, 50 μM, 48 h) is reported as 17%. The “Growth Inhibition (%)” value (LOX IMVI; 50 μM) was 8%, the “Growth Inhibition (%)” value (NCI-H23; Non-Small Cell lung Cancer NCI-H23, 50 μM, 48 h) was 6% and the “Growth Inhibition (%)” value (786-0; Renal Cancer 786-0, 50 μM, 48 h) was 6%. The “Growth Inhibition (%)” value (RXF 393; Renal Cancer RXF 393, 50 μM, 48 h) was 17%, the “Growth Inhibition (%)” value (HT29; Colon Cancer HT29, 50 μM, 48 h) was 12% and the “Growth Inhibition (%)” value (UACC-62; Melanoma UACC-62, 50 μM, 48 h) was 30%. For the same compound, the “Growth Inhibition (%)” value (IGROV1; Ovarian Cancer IGROV1, 50 μM, 48 h) was 15%, the “Growth Inhibition (%)” value (OVCAR-3; Ovarian Cancer OVCAR-3, 50 μM, 48 h) was 30% and the “Growth Inhibition (%)” value (PC-3; Prostate Cancer PC-3, 50 μM, 48 h) was 14%. For the same compound, the “Growth Inhibition (%)” value (M14; Melanoma M14, 50 μM, 48 h) was 17%, the “Growth Inhibition (%)” value (UO-31; Renal Cancer UO-31, 50 μM, 48 h) was 27% and the “Growth Inhibition (%)” value (OVCAR-4; Ovarian Cancer OVCAR-4, 50 μM, 48 h) was 2%. For the same compound, the “Growth Inhibition (%)” value (ACHN; 50 μM) was 0%, the “Growth Inhibition (%)” value (UACC-257; Melanoma UACC-257, 50 μM, 48 h) was 14% and the “growth inhibition for most tested cell lines” value ([1]; most cell lines of the NCI-60 panel, 50 μM) was “less than 50%”. The “Growth Inhibition (%)” value (SF-539; CNS Cancer SF-539, 50 μM, 48 h) was 13%, the “expression level of caspase 3” value (caspase 3) was “significantly reduced” and the “level of cleavage of caspase 3” value (caspase 3) was “increased”. The “Growth Inhibition (%)” value (K-562; Leukemia K-562, 50 μM, 48 h) was 18%, the “Growth Inhibition (%)” value (NCI-H322M; 50 μM) was 12% and the “Growth Inhibition (%)” value (MDA-MB-231/ATCC; 50 μM) was 13%. The “Growth Inhibition (%)” value (HL-60(TB); 50 μM) was 11%.
